By TGI is commonly meant the reduction of tumour growth relative to the control group. Lower therefore signals little slowing of growth.

Assay [1] relates to engineered REC-1 PLCγ2^L845F cells. The experiment in a line: Cancer cell growth in vitro, CellTiter-Glo, 6 days. It is filed as cell-based. The conditions noted are these: 6 days after administration, compared to Ibrutinib (FIG. 1C). On the procedure:
(§1) Parental REC1 cells were obtained from the American Type Culture Collection (ATCC). PLCγ2 gene in REC-1 cell line was edited using the CRISPR-Cas9 technology to create a S to Y point mutation at residue 707 of PLCγ2 protein, or L to F point mutation at residue 845 of PLCγ2 protein. For gene editing, first, gRNA complex of PLCγ2 S707Y or PLCγ2 L845F was prepared with Alt-R CRISPR-Cas9 tracrRNA and crRNA PLCγ2 S707Y (5′-[…]-3′) or PLCγ2 L845F (5′-[…]-3′) (IDT-Integrated DNA Technologies), and then ribonucleoprotein (RNP) complex of PLCγ2 S707Y or PLCγ2 L845F was prepared with respective gRNA complex and Alt-R S.p. Cas9 Nuclease V3 (IDT-Integrated DNA Technologies). […]
(§2) Parental REC1 cells (ATCC), engineered REC1 PLCγ2^S707Y cells, or engineered REC-1 PLCγ2^L845F cells, were plated in 96-well plates at 8,000 cells/well in 90 μl of RPMI1640 growth medium containing 10% heat-inactivated FBS and 1× Penicillin Streptomycin, and then incubated at 37° C. overnight. […] The plates were then incubated at room temperature for 10 minutes and luminescence was recorded by EnSpire plate reader (PerkinElmer).

For assay [2], the system named is engineered REC1 PLCγ2^S707Y cells. Put plainly: Cancer cell growth in vitro, CellTiter-Glo, 6 days. It is filed as cell-based. The conditions noted are these: 6 days after administration, compared to Ibrutinib (FIG. 1B). On the procedure: as §1, §2
In general terms: ATP-based viability assays read luminescence as a measure of living cells.

Assay [3] deals with engineered REC1 PLCγ2^S707Y knock-in tumors. The experiment in a line: Mouse xenograft tumor model, REC1 PLCγ2^S707Y knock-in. It is filed as in vivo. The settings on record: for TGI: 14 days after administration, S707Y tumors. On the procedure: (§3) Parental REC1 cells (ATCC), engineered REC1 PLCγ2^S707Y cells, and engineered REC-1 PLCγ2^L845F cells, as described in Example 1, were maintained in vitro as monolayer culture in RPMI1640 medium supplemented with 10% fetal bovine serum and 1× Penicillin Streptomycin at 37° C. in an atmosphere of 5% CO2 in air. The tumor cells were routinely subcultured twice weekly. The cells growing in an exponential growth phase were harvested and counted for tumor inoculation. Each mouse was inoculated subcutaneously at the armpit of the right flank with 5×10^6 tumor cells in 0.1 mL of PBS mixed with 0.1 mL matrigel for tumor development. Treatment of the BTK degrader of Formula I-D (1.5 mg/kg, 3 mg/kg, 6 mg/kg, or 15 mg/kg, PO), Ibrutinib (25 mg/kg, PO), or vehicle (PO) started when the average tumor size reached approximately 100 mm^3. Mice were assigned into groups using an Excel-based randomization software performing stratified randomization based upon their tumor volumes. Tumor sizes were measured 3 times weekly in two dimensions using a caliper, and the volume was expressed in mm^3 using the formula: V=0.5 a×b^2 where a and b are the long and short diameters of the tumor, respectively. Tumor growth inhibition (TGI) was calculated for each group using the formula: TGI (%)=[1−(Ti−T0)/(Vi−V0)]×100; Ti is the average tumor volume of a treatment group on a given day, T0 is the average tumor volume of the treatment group on the first day of treatment, Vi is the average tumor volume of the vehicle control group on the same day with Ti, and V0 is the average tumor volume of the vehicle group on the first day of treatment.

The subject of assay [4] is engineered REC1 PLCγ2^L845F knock-in tumors. The experiment in a line: Mouse xenograft tumor model, REC1 PLCγ2^L845F knock-in. The settings on record: for TGI: 14 days after administration, L845F tumors. Type of assay: in vivo. On the procedure:
as §3

In the case of `COc1ccc(F)cc1C(=O)NCc1ccc(-c2nn(-c3ccc(N4CCC(CN5CCN(c6ccc7c(c6)CN(C6CCC(=O)NC6=O)C7=O)CC5)CC4)c(F)c3)c3ncnc(N)c23)cc1` (stereo not drawn) [Formula I-D], the cell growth inhibition result in assay [1] and in assay [2] was “significantly inhibited cell growth” throughout. Further, the tumour growth inhibition (TGI) was found to be 61% in assay [3] (3 mg/kg PO); 74% in assay [3] (6 mg/kg PO); 86% in assay [3] (15 mg/kg PO); 63% in assay [4] (3 mg/kg PO); 81% in assay [4] (6 mg/kg PO); 88% in assay [4] (15 mg/kg PO). In addition, the “tumor growth inhibition vs Ibrutinib” value in assay [3] (REC1 PLCγ2^S707Y knock-in mice, PO, 14 days after administration (FIG. 2B)) is given as “significantly inhibited tumor growth”; in assay [4] (REC-1 PLCγ2^L845F knock-in mice, PO, 14 days after administration (FIG. 2C)), “significantly inhibited tumor growth”.
As for `C=CC(=O)N1CCC[C@@H](n2nc(-c3ccc(Oc4ccccc4)cc3)c3c(N)ncnc32)C1` [Ibrutinib, reference compound], the inhibition of tumour growth (TGI) is reported as 5% in assay [3] (Ibrutinib 25 mg/kg PO) and 12% in assay [4] (Ibrutinib 25 mg/kg PO).

Values taken from patent US20250352548A1, “BTK Reducing Molecules for Treatment of Cancers and Immune System Disorders” (Accutar Biotechnology, Inc., priority 2022, published 2025).
